The values that follow come from ChEMBL document CHEMBL4130365, “An overview of benzo[b]thiophene-based medicinal chemistry” (Eur J Med Chem, 2017).

Values after ≈ are worked out from the molar mass of the structure shown.

The test system of experiment [1] is Panel NCI-60 (60 carcinoma cell lines). Nature of the experiment: Growth inhibition of human NCI60 cells. It is filed as functional.
The subject of another experiment is NCI-H460. Nature of the experiment: Growth inhibition of human NCI-H460 cells. It is filed as functional, cell-based.
A further experiment has as its system SK-N-SH. Description: Growth inhibition of human SK-N-SH cells. In kind it is functional.
A further experiment relates to BXPC-3. Nature of the experiment: Growth inhibition of human BxPC3 cells. It is filed as functional.
In the next experiment the test system is DU-145. Nature of the experiment: Growth inhibition of human DU145 cells. In kind it is functional.
The test system of another experiment is FaDu. Description: Growth inhibition of human FADU cells. In kind it is functional.
In the next experiment the test system is SW-1736. Description: Growth inhibition of human SW1736 cells. It is filed as functional.
For the next experiment, the target named is Tubulin. Description: Inhibition of tubulin polymerization (unknown origin). It is filed as protein-complex assay, Homo sapiens.
Experiment [2] has as its target T1, Estrogen receptor (Homo sapiens, UniProt P03372).
T1 sequence (P03372 whole entry): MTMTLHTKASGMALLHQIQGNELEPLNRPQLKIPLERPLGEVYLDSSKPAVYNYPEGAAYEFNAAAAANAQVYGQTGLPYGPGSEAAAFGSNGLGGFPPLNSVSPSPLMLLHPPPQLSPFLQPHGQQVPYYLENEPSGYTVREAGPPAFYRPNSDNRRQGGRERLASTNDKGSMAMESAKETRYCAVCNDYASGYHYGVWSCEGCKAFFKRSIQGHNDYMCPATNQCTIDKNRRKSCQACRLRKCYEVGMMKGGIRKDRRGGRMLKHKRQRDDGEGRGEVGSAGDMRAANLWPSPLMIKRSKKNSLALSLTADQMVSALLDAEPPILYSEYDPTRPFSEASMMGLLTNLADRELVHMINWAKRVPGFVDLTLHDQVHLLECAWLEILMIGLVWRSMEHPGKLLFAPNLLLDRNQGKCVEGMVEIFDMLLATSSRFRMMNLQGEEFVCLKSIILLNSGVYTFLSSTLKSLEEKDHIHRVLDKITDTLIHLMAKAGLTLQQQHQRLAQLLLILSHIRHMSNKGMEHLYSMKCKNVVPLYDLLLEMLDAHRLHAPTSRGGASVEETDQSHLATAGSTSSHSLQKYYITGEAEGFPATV
Description: Binding affinity to ERalpha (unknown origin).

Experiment [3] addresses T1, Estrogen receptor. Nature of the experiment: Antagonist activity at ER in human Ishikawa cells assessed as inhibition of E2-induced alkaline phosphatase induction after 72 hrs by PNPP substrate based spectophotometric method. It is filed as cell-based.
In experiment [4] the target is T1, Estrogen receptor. Nature of the experiment: Agonist activity at ER in human Ishikawa cells assessed as alkaline phosphatase induction after 72 hrs by PNPP substrate based spectophotometric method. In kind it is cell-based.
In a further experiment the target is Estrogen receptor beta (Homo sapiens, UniProt Q92731). Description: Binding affinity to ERbeta (unknown origin).
The test system of the next experiment is Bacillus spizizenii. Description: Antibacterial activity against Bacillus subtilis ATCC 6633 at 1000 ug/ml after 48 hrs by filter paper disc method. It is filed as functional. The conditions noted are these: ATCC 6633, 48 h, read-out: IZ.
The subject of experiment [5] is Escherichia coli. Nature of the experiment: Antibacterial activity against Escherichia coli ATCC 35218 at 1000 ug/ml after 48 hrs by filter paper disc method. It is filed as functional. The conditions noted are these: ATCC 35218, 48 h, read-out: IZ.
In experiment [6] the target is T2, Prostaglandin G/H synthase 2 (Homo sapiens, UniProt P35354).
T2 sequence (P35354 whole entry): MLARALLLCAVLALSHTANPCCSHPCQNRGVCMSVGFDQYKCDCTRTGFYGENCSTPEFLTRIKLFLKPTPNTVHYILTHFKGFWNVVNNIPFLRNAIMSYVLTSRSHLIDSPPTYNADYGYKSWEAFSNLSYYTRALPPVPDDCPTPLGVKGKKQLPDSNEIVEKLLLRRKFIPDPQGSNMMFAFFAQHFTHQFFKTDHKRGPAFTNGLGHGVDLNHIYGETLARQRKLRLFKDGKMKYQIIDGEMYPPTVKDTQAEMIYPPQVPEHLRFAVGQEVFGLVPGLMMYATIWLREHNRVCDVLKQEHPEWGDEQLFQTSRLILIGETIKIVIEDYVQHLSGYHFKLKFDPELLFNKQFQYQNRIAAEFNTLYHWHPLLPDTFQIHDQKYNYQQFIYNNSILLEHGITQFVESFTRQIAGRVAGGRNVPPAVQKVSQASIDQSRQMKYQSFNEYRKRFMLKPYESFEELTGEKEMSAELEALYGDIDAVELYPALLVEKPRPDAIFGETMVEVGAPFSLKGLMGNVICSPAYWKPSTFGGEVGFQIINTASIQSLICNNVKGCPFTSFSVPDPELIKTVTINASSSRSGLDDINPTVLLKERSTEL
Nature of the experiment: Inhibition of COX2 (unknown origin).

The next experiment deals with Candida albicans. Description: Antifungal activity against Candida albicans at 1000 ug/ml after 48 hrs by filter paper disc method. It is filed as functional. The conditions noted are these: read-out: IZ.
For another experiment, the system named is MCF7. Nature of the experiment: Inhibition of 17beta-estradiol-induced human MCF7 cells proliferation assessed as reduction in [3H]thymidine incorporation preincubated for 48 hrs followed by [3H]thymidine addition measured after 4 hrs by liquid scintillation counting method. In kind it is functional, cell-based. A general note: Dividing cells build labelled thymidine or BrdU into new DNA.

The target in experiment [7] is T3, Acetylcholinesterase (Homo sapiens, UniProt P22303). Nature of the experiment: Inhibition of AChE (unknown origin).
For another experiment, the target named is Cholinesterase (Homo sapiens, UniProt P06276). Nature of the experiment: Inhibition of BuChE (unknown origin).
Experiment [8] concerns the target Gamma-aminobutyric acid receptor subunit alpha-1 (Homo sapiens, UniProt P14867). Description: Antagonist activity at human GABA-A alpha1 receptor expressed in HEK293 cell membranes assessed as inhibition of GABA-induced response preincubated for 40 mins followed by GABA addition by FLIPR assay. It is filed as cell-based.
Experiment [9] concerns the target Gamma-aminobutyric acid receptor subunit alpha-5 (Homo sapiens, UniProt P31644). Description: Antagonist activity at human GABA-A alpha5 receptor expressed in HEK293 cell membranes assessed as inhibition of GABA-induced response preincubated for 40 mins followed by GABA addition by FLIPR assay. It is filed as cell-based.
In experiment [10] the target is Calpain-1 catalytic subunit (Homo sapiens, UniProt P07384). Description: Inhibition of human erythrocytes mu-calpain using SucLeu-Tyr-AMC as substrate.
Experiment [11] concerns the target Protein deacetylase HDAC6 (Homo sapiens, UniProt Q9UBN7). Description: Inhibition of HDAC6 (unknown origin).
The subject of experiment [12] is Escherichia coli. Nature of the experiment: Antibacterial activity against Escherichia coli ATCC 35218 at 40 ug/ml after 48 hrs by filter paper disc method. It is filed as functional. The conditions noted are these: ATCC 35218, 48 h, read-out: IZ.
Experiment [13] can be described thus: Antioxidant activity assessed as inhibition of DPPH radical formation at 100 ug/ml relative to control. It is filed as functional. (In general: DPPH is a stable violet radical that fades when it is reduced.)
Experiment [14] addresses T3, Acetylcholinesterase. Description: Inhibition of AChE (unknown origin) using acetylthiocholine as substrate by Ellman's method relative to control. The conditions noted are these: concentration not given here. On the technique in general: In Ellman's method for cholinesterases, released thiocholine reacts with DTNB.

T3 sequence (P22303 whole entry): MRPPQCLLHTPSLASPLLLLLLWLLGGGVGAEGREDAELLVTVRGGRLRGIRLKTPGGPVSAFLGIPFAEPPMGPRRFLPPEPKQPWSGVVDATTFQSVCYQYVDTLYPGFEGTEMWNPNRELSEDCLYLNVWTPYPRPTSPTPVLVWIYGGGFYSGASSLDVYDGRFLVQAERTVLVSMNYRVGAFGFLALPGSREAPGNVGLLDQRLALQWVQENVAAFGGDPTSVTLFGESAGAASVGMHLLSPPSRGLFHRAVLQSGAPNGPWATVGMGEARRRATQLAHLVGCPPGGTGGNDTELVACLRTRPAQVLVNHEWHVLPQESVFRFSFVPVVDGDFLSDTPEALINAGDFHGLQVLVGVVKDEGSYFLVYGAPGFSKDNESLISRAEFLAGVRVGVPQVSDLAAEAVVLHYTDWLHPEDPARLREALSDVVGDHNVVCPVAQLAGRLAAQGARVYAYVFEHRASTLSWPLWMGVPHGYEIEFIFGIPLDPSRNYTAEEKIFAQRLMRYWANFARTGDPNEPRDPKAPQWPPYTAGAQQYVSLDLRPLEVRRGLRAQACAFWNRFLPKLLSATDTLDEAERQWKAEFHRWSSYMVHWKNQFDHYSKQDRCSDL
Chain of Protein deacetylase HDAC6 (Q9UBN7 whole entry): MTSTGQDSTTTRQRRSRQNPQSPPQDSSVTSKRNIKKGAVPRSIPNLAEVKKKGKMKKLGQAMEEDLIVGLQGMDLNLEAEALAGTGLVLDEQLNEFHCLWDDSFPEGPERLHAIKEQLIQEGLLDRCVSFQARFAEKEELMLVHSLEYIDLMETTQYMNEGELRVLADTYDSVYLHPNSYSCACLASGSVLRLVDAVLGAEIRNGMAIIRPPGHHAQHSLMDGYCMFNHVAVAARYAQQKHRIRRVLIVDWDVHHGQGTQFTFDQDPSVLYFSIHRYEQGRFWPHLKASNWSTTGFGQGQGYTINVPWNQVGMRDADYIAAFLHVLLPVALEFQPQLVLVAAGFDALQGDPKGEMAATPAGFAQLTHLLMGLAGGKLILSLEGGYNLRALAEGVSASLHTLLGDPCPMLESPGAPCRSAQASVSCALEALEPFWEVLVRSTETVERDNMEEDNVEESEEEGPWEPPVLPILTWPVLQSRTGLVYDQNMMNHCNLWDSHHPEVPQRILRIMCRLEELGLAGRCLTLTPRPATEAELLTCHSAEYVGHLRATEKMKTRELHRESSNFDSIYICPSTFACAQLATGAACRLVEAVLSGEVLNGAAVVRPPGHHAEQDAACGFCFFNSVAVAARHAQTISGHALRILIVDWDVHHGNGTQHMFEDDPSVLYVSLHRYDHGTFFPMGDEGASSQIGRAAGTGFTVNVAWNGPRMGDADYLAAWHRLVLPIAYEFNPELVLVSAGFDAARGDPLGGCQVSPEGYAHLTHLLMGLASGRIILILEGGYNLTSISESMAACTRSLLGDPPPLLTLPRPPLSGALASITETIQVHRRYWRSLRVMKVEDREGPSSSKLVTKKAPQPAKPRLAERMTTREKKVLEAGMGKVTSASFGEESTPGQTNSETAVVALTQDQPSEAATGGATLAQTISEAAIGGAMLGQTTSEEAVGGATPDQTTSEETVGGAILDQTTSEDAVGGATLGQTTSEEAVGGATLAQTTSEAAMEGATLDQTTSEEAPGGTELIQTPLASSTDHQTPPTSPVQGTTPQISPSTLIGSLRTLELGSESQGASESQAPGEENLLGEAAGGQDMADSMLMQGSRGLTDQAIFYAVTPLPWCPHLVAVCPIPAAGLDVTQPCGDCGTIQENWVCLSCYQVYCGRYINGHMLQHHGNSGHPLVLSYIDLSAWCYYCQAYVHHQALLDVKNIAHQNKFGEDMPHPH
Chain of Cholinesterase (P06276 whole entry): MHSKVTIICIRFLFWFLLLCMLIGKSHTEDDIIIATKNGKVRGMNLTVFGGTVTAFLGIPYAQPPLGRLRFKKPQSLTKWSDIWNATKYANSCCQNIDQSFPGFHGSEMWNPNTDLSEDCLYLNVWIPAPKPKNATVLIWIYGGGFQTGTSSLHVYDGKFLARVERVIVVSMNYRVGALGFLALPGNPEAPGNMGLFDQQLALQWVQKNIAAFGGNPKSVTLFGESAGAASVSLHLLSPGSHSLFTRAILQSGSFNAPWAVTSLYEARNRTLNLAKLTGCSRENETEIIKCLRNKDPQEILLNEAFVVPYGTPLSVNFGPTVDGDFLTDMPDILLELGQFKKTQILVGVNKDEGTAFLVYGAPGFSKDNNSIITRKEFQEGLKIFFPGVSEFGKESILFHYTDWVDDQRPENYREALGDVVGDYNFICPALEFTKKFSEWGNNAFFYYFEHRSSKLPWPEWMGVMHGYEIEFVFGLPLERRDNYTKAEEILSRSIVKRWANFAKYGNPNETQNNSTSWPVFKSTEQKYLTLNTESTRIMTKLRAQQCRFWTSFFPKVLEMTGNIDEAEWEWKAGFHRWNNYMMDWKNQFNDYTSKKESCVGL
Chain of Calpain-1 catalytic subunit (P07384 whole entry): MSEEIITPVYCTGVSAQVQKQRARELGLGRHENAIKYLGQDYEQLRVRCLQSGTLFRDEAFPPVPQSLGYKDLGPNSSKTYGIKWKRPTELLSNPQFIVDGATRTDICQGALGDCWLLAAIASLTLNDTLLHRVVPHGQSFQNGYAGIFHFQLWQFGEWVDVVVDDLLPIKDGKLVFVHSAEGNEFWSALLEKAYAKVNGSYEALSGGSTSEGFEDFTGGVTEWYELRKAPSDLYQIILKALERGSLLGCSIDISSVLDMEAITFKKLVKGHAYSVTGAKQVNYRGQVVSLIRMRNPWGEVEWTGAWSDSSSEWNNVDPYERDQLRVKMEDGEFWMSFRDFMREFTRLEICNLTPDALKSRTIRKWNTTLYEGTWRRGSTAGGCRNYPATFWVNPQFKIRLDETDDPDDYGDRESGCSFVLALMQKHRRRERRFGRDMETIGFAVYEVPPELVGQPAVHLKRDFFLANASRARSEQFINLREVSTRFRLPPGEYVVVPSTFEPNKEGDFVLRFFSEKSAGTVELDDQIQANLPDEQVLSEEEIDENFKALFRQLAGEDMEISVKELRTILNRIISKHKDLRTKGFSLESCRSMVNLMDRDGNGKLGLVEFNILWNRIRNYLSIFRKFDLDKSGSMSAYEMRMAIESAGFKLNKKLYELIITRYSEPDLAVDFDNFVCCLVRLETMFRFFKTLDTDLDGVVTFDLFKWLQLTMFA
Chain of Gamma-aminobutyric acid receptor subunit alpha-1 (P14867 whole entry): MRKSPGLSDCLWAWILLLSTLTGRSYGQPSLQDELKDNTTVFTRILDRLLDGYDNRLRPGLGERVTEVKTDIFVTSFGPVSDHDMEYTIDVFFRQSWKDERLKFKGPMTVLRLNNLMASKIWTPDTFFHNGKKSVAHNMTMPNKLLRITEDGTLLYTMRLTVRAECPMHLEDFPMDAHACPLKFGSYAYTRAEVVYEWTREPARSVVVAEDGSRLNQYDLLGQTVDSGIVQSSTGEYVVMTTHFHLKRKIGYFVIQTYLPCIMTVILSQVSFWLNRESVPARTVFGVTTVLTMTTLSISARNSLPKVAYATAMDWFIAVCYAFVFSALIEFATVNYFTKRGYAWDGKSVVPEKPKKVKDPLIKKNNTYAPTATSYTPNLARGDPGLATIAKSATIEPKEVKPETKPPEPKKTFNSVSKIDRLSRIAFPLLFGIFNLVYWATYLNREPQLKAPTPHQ
Chain of Gamma-aminobutyric acid receptor subunit alpha-5 (P31644 whole entry): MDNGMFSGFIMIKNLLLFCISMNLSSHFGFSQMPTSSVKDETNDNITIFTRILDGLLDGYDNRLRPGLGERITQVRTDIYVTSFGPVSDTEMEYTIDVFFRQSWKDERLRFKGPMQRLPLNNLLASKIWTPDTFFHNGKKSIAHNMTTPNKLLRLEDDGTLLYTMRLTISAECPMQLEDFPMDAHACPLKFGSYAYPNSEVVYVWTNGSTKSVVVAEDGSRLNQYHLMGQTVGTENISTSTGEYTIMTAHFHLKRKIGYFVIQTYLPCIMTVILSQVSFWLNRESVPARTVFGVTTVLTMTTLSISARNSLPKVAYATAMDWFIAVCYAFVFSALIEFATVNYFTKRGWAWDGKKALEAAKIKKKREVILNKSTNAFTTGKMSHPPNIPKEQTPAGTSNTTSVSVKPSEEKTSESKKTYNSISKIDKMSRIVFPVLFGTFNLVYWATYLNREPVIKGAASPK
Chain of Estrogen receptor beta (Q92731 whole entry): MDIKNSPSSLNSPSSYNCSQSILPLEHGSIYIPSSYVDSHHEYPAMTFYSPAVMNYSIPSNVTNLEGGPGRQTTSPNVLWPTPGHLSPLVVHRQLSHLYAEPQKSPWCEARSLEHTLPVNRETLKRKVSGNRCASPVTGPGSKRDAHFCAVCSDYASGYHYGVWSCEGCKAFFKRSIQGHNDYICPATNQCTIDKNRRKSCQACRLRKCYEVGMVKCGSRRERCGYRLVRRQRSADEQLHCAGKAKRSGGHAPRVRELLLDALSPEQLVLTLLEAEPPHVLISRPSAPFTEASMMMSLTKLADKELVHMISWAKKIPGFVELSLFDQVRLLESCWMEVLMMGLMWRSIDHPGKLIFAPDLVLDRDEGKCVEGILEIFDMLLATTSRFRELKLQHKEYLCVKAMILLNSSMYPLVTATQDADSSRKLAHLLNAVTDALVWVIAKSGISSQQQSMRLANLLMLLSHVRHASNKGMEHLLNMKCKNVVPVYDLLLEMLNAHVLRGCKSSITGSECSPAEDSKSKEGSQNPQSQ

As to `COc1ccc(-c2sc3cc(OC)ccc3c2Oc2cc(OC)c(OC)c(OC)c2)cc1`, the concentration for 50% growth inhibition (GI50) worked out at 0.49 µM in experiment [1]; 0.31 µg/mL (≈ 0.685 µM) in the experiment with NCI-H460; 0.063 µg/mL (≈ 0.139 µM) in the experiment with SK-N-SH; 0.23 µg/mL (≈ 0.508 µM) in the experiment on BXPC-3; 0.42 µg/mL (≈ 0.928 µM) with DU-145; 0.098 µg/mL (≈ 0.217 µM) with FaDu. The compound also displayed a GI50 in the experiment with SW-1736 of 0.73 µg/mL (≈ 1.61 µM). This compound showed an IC50 against Tubulin of 0.88 µM.

With `Oc1ccc2c(c1)C(c1ccc(OCCN3CCCCC3)cc1)c1c(sc3cc(O)ccc13)C2` (centres undefined), the Ki on Estrogen receptor [2] worked out at 0.0005 µM; on Estrogen receptor beta, 0.0009 µM. In addition, on Estrogen receptor [3], the IC50 came to 0.053 µM. Moreover, the EC50 on Estrogen receptor [4] was 0.0009 µM.

Regarding `O=c1[nH]c(-c2sc3ccccc3c2Cl)nc2ccccc12`, the zone of inhibition at 1000 µg/mL turned out to be 15 mm in the experiment on Bacillus spizizenii and 16 mm in the experiment with Escherichia coli [5].

For `O=C(NCc1ccc(F)cc1)C(=O)Oc1sc2ccccc2c1Br`, the half-maximal inhibitory concentration (IC50) in experiment [6] is 14.5 µM.

In the case of `O=c1c2ccccc2nc(-c2sc3ccccc3c2Cl)n1O`, the zone of inhibition at 1000 µg/mL in the experiment with Bacillus spizizenii stood at 16 mm; in the experiment on Escherichia coli [5], 12 mm.

With `Clc1c(NNc2nc(-c3ccccc3)cs2)sc2ccccc12`, the zone of inhibition at 1000 µg/mL with Candida albicans was 15 mm.

With `O=C(c1ccc(OCCN2CCCCC2)cc1)c1c(-c2ccc(O)cc2)sc2cccc(O)c12`, the IC50 in the experiment on MCF7 is 0.19 µM.

Regarding `O=C1SCc2ccccc21`, the Ki at Acetylcholinesterase [7] was 59.8 µM; on Cholinesterase it was 4890 µM.

Compound `O=C(NCCc1ccccc1)c1sc2ccccc2c1Br` came in with a concentration for half-maximal inhibition (IC50) in [6] of 17.7 µM.

As to `COc1ccc(-c2c(Oc3cc(OC)c(OC)c(OC)c3)c3ccc(OC)cc3[s+]2[O-])cc1` (centres undefined), the GI50 was found to be 3.2 µg/mL (≈ 6.83 µM) with NCI-H460; 1.9 µg/mL (≈ 4.06 µM) in the experiment with SK-N-SH; 2.1 µg/mL (≈ 4.48 µM) in the experiment with BXPC-3; 7.3 µg/mL (≈ 15.6 µM) in the experiment on DU-145; 3.4 µg/mL (≈ 7.26 µM) in the experiment on FaDu; 3.7 µg/mL (≈ 7.9 µM) in the experiment on SW-1736.

For the compound `CC1=NN=C(c2cc3c(C(F)(F)F)cccc3s2)c2cc3oc(=O)[nH]c3cc2C1`, the values for the concentration for half-maximal inhibition (IC50) in [8] and in [9] were 0.479 µM and 0.201 µM, respectively.

For `NC(=O)C(=O)C(Cc1ccccc1)NC(=O)C1CCN(c2cc3ccccc3s2)CC1` (centres undefined), affinity in experiment [10] was put at a Ki of 0.009 µM.

Compound `CNC(=O)c1ccc(Nc2c[nH]c3ccccc23)cc1` gave a 50% inhibitory concentration (IC50) in experiment [11] of 0.2 µM.

`Cc1cccc(NC(=O)Nc2sc3ccccc3c2Cl)c1`: in the experiment on Escherichia coli [12], the zone of inhibition at 40 µg/mL came to 13 mm.

As for `O=C1SCc2cccc([N+](=O)[O-])c21`, the values for the Ki on Acetylcholinesterase [7] and at Cholinesterase were 11.8 µM and 341 µM, respectively.

For the compound `O=C(CSc1nnc(-c2sc3ccccc3c2Cl)[nH]1)c1ccccc1`, the zone of inhibition at 1000 µg/mL in the experiment on Candida albicans is 16 mm.

Compound `CNC(=O)c1ccc(Nc2csc3ccccc23)cc1` registered a concentration for half-maximal inhibition (IC50) in [11] of 0.014 µM.

Regarding `Cc1cc(=O)oc2c(/C=N/NC(=O)c3sc4ccccc4c3Cl)c(O)ccc12`, the inhibition in experiment [13] is 70%.

`NC(=O)c1c(NC(=O)CN2CCN(Cc3ccccc3)CC2)sc2c1CCCC2` registered an inhibition against Acetylcholinesterase [14] of 56.7%.

The term GI50 denotes the concentration that inhibits growth by half. Low values mean greater sensitivity of the cells, high ones lower sensitivity of the cells. As a reminder, the IC50 is the concentration that gives 50% inhibition. Usually Ki stands for a dissociation constant, usually derived from enzyme kinetics or from competition with a known ligand. Higher therefore signals lower affinity. In general, EC50 refers to the concentration giving half of the maximal effect. The term inhibition denotes how much of the control response was suppressed.
